From BindingDB's records for doi:10.1002/1439-7633(20021004)3:10 (Aventis Pharmaceuticals, 2002)
Where “and” joins values, the source holds several entries; their conditions need not be identical. Equal entries are not always repeated.

What follows are molecules tested against T1, Alpha-1B adrenergic receptor (Rattus norvegicus, UniProt P15823) (assay: Binding Assay).
T1 sequence (P15823 whole entry): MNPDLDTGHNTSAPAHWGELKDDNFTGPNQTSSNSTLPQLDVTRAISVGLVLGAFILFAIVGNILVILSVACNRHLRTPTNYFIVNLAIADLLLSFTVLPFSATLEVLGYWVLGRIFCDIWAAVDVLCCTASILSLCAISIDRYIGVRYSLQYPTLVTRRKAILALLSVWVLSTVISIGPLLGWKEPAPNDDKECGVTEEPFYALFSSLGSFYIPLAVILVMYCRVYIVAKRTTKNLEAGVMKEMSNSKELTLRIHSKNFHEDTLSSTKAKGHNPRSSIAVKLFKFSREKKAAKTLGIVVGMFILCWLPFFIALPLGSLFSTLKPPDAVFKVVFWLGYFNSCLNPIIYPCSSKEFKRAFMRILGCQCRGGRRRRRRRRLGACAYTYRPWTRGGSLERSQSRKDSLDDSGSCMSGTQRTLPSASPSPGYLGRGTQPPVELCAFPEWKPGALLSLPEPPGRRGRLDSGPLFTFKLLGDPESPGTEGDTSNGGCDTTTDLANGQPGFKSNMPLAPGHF
Description: All rat alpha-1 adrenoceptor binding was performed by Hugo M. vargas, Karen M. Brooks and Lynn Laws-Ricker.

| Compound | Ki |
| --- | --- |
| OCC(CN1Cc2ccccc2C1)N1CCC(c2noc3cc(F)ccc23)CC1 (stereo not given) [Isoindoline, 9] | 43 nM and 54.5 nM and 225 nM |
| OCC(CN1Cc2ccc(F)cc2C1)N1CCC(c2noc3cc(F)ccc23)CC1 (stereo not given) [Isoindoline, 11] | 92.5 nM |
| OCC(CN1Cc2cccc(F)c2C1)N1CCC(c2noc3cc(F)ccc23)CC1 (stereo not given) [Isoindoline, 12] | 232 nM |
| OCC(CN1Cc2ccc(Cl)cc2C1)N1CCC(c2noc3cc(F)ccc23)CC1 (stereo not given) [Isoindoline, 13] | 11.9 nM |
| Cc1cccc2c1CN(CC(CO)N1CCC(c3noc4cc(F)ccc34)CC1)C2 (stereo not given) [Isoindoline, 16] | 12.4 nM |
| OCC(CN1Cc2ccc(C(F)(F)F)cc2C1)N1CCC(c2noc3cc(F)ccc23)CC1 (stereo not given) [Isoindoline, 17] | 26 nM |
| COc1ccc2c(c1)CN(CC(CO)N1CCC(c3noc4cc(F)ccc34)CC1)C2 (stereo not given) [Isoindoline, 19] | 20 nM |
| COc1cccc2c1CN(CC(CO)N1CCC(c3noc4cc(F)ccc34)CC1)C2 (stereo not given) [Isoindoline, 20] | 17.5 nM |
| O=C1c2ccccc2CN1CC(CO)N1CCC(c2noc3cc(F)ccc23)CC1 (stereo not given) [Isoindoline, 23] | 4.1 nM |
| OCC(CN1CCc2ccccc2C1)N1CCC(c2noc3cc(F)ccc23)CC1 (stereo not given) [Isoindoline, 26] | 19 nM |
